Results reported in patent US6737383B1, “Herbicidal oxadiazolidines” (priority 1999, dated 2004).

Legend:
blackgrass = assay: Test B pre/postemergence blackgrass; assay type: in vivo, Alopecurus myosuroides
Method in brief: (§1)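 Test chemicals in a non-phytotoxic solvent mixture with surfactant were sprayed preemergence onto planted seeds and postemergence onto plants 2 to 18 cm tall (1- to 4-leaf stage). After twelve to sixteen days in a greenhouse, injury was visually rated against untreated controls from 0 (no effect) to 10 (complete control).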

cocklebur = assay: Test B pre/postemergence cocklebur; assay type: in vivo, Xanthium strumarium
Method in brief: as §1

corn = assay: Test B pre/postemergence corn; assay type: in vivo, Zea mays
Method in brief: as §1

crabgrass = assay: Test B pre/postemergence crabgrass; assay type: in vivo, Digitaria sanguinalis
Method in brief: as §1

giant foxtail = assay: Test B pre/postemergence giant foxtail; assay type: in vivo, Setaria faberii
Method in brief: as §1

morningglory = assay: Test B pre/postemergence morningglory; assay type: in vivo, Ipomoea hederacea
Method in brief: as §1

pigweed = assay: Test B pre/postemergence pigweed; assay type: in vivo, Amaranthus retroflexus
Method in brief: as §1

rape = assay: Test B pre/postemergence rape; assay type: in vivo, Brassica napus
Method in brief: as §1

soybean = assay: Test B pre/postemergence soybean; assay type: in vivo, Glycine max
Method in brief: as §1

sugar beet = assay: Test B pre/postemergence sugar beet; assay type: in vivo, Beta vulgaris
Method in brief: as §1

velvetleaf = assay: Test B pre/postemergence velvetleaf; assay type: in vivo, Abutilon theophrasti
Method in brief: as §1

wheat = assay: Test B pre/postemergence wheat; assay type: in vivo, Triticum aestivum
Method in brief: as §1

purple nutsedge = assay: Test B pre/postemergence purple nutsedge; assay type: in vivo, Cyperus rotundus
Method in brief: as §1

rice = assay: Test B flood test rice; assay type: in vivo, Oryza sativa
Method in brief: (§2)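 Plants were grown to the 2-leaf stage before treatment with test chemical, then held in a greenhouse for twelve to sixteen days. Injury was visually rated against untreated controls on a 0–10 scale, where 0 is no effect and 10 is complete control.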

smallflower flatsedge = assay: Test B flood test smallflower flatsedge; assay type: in vivo, Cyperus difformis
Method in brief: as §2

duck salad = assay: Test B flood test duck salad; assay type: in vivo, Heteranthera limosa
Method in brief: as §2

[1] = Postemergence, Rate 62 g/ha, scale 0 to 10, 0 is no effect, 10 is complete control
[2] = Postemergence, Rate 250 g/ha, scale 0 to 10, 0 no effect, 10 complete control
[3] = Preemergence, Rate 62 g/ha, scale 0 to 10 (0 no effect, 10 complete control)
[4] = Preemergence, Rate 125 g/ha, scale 0 to 10 (0 no effect, 10 complete control)
[5] = Preemergence, Rate 250 g/ha, scale of 0 to 10 where 0 is no effect and 10 is complete control
[6] = Preemergence, Rate 500 g/ha, scale 0 (no effect) to 10 (complete control)
[7] = Rate 125 g/ha, Postemergence, scale 0 to 10, 0 no effect, 10 complete control
[8] = Rate 500 g/ha, Postemergence, scale 0 to 10, 0 no effect, 10 complete control
[9] = Rate 125 g/ha, Postemergence section (flood test species), scale 0 to 10, 0 no effect, 10 complete control
[10] = Rate 250 g/ha, headed Pre-emergence (flood test species), scale 0 to 10 (0 no effect, 10 complete control)
[11] = Rate 500 g/ha, headed Pre-emergence (flood test species), scale 0 to 10 (0 no effect, 10 complete control)
[12] = Rate 500 g/ha, listed under Postemergence (flood test species), scale 0 to 10, 0 no effect, 10 complete control
[13] = Rate 1000 g/ha, Pre-emergence (as headed), scale 0 to 10
[14] = Rate 2000 g/ha, Pre-emergence (as headed), scale 0 to 10
[15] = flood test, listed under Postemergence, Rate 250 g/ha, scale 0 to 10, 0 no effect, 10 complete control

CC(C)N(C(=O)n1oc(=O)n(Cc2ccccc2)c1=O)c1ccc(F)cc1 [Compound 78]
8: Giant foxtail plant response rating (giant foxtail; [3]) | Plant response rating, Giant foxtail (giant foxtail; [4]) | Morningglory plant response rating (morningglory; [7])
9: Plant response rating, Crabgrass (crabgrass; [4]) | Plant response rating, Crabgrass (crabgrass; [5]) | Crabgrass plant response rating (crabgrass; [8]) | Plant response rating, Giant foxtail (giant foxtail; [5]) | Giant foxtail plant response rating (giant foxtail; [6])
1: Soybean plant response rating (soybean; [1]) | Soybean plant response rating (soybean; [7])
5: Crabgrass plant response rating (crabgrass; [2]) | Plant response rating, Rape (rape; [5]) | Rape plant response rating (rape; [6]) | Plant response rating, Sugarbeets (sugar beet; [5]) | Sugarbeets plant response rating (sugar beet; [6])
10: Crabgrass plant response rating (crabgrass; [6]) | Morningglory plant response rating (morningglory; [2]) | Morningglory plant response rating (morningglory; [8])
2: Blackgrass plant response rating (blackgrass; [3]) | Cocklebur plant response rating (cocklebur; [2]) | Cocklebur plant response rating (cocklebur; [7]) | Crabgrass plant response rating (crabgrass; [7]) | Redroot pigweed plant response rating (pigweed; [1]) | Rape plant response rating (rape; [2]) | Soybean plant response rating (soybean; [2]) | Sugarbeets plant response rating (sugar beet; [1]) | Velvetleaf plant response rating (velvetleaf; [1]) | Plant response rating, Velvetleaf (velvetleaf; [5]) | Velvetleaf plant response rating (velvetleaf; [7]) | Rice plant response rating (rice; [12])
6: Blackgrass plant response rating (blackgrass; [6]) | Plant response rating, Redroot pigweed (pigweed; [5]) | Redroot pigweed plant response rating (pigweed; [6]) | Redroot pigweed plant response rating (pigweed; [8])
4: Plant response rating, Blackgrass (blackgrass; [4]) | Plant response rating, Blackgrass (blackgrass; [5]) | Giant foxtail plant response rating (giant foxtail; [8]) | Rape plant response rating (rape; [8]) | Soybean plant response rating (soybean; [8]) | Sugarbeets plant response rating (sugar beet; [2]) | Sugarbeets plant response rating (sugar beet; [7]) | Velvetleaf plant response rating (velvetleaf; [8]) | S. Flatsedge plant response rating (smallflower flatsedge; [12])
0: Blackgrass plant response rating (blackgrass; [1]) | Cocklebur plant response rating (cocklebur; [3]) | Plant response rating, Cocklebur (cocklebur; [4]) | Plant response rating, Cocklebur (cocklebur; [5]) | Cocklebur plant response rating (cocklebur; [6]) | Corn plant response rating (corn; [1]) | Corn plant response rating (corn; [2]) | Corn plant response rating (corn; [3]) | Plant response rating, Corn (corn; [4]) | Plant response rating, Corn (corn; [5]) | Corn plant response rating (corn; [6]) | Corn plant response rating (corn; [7]) | Corn plant response rating (corn; [8]) | Crabgrass plant response rating (crabgrass; [1]) | Giant foxtail plant response rating (giant foxtail; [1]) | Morningglory plant response rating (morningglory; [3]) | Plant response rating, Morningglory (morningglory; [4]) | Plant response rating, Morningglory (morningglory; [5]) | Morningglory plant response rating (morningglory; [6]) | Redroot pigweed plant response rating (pigweed; [3]) | Plant response rating, Redroot pigweed (pigweed; [4]) | Rape plant response rating (rape; [1]) | Rape plant response rating (rape; [3]) | Plant response rating, Rape (rape; [4]) | Rape plant response rating (rape; [7]) | Soybean plant response rating (soybean; [3]) | Plant response rating, Soybean (soybean; [4]) | Plant response rating, Soybean (soybean; [5]) | Soybean plant response rating (soybean; [6]) | Sugarbeets plant response rating (sugar beet; [3]) | Plant response rating, Sugarbeets (sugar beet; [4]) | Velvetleaf plant response rating (velvetleaf; [3]) | Plant response rating, Velvetleaf (velvetleaf; [4]) | Wheat plant response rating (wheat; [1]) | Wheat plant response rating (wheat; [2]) | Wheat plant response rating (wheat; [3]) | Plant response rating, Wheat (wheat; [4]) | Wheat plant response rating (wheat; [7]) | Wheat plant response rating (wheat; [8]) | Nutsedge plant response rating (purple nutsedge; [1]) | Nutsedge plant response rating (purple nutsedge; [2]) | Nutsedge plant response rating (purple nutsedge; [3]) | Plant response rating, Nutsedge (purple nutsedge; [4]) | Plant response rating, Nutsedge (purple nutsedge; [5]) | Nutsedge plant response rating (purple nutsedge; [6]) | Nutsedge plant response rating (purple nutsedge; [7]) | Nutsedge plant response rating (purple nutsedge; [8]) | Rice plant response rating (rice; [1]) | Rice plant response rating (rice; [9]) | Rice plant response rating (rice; [10]) | Plant response rating, Rice (rice; [11]) | Rice plant response rating (rice; [13]) | Rice plant response rating (rice; [14]) | Rice plant response rating (rice; [15]) | S. Flatsedge plant response rating (smallflower flatsedge; [1]) | S. Flatsedge plant response rating (smallflower flatsedge; Pre-emergence, Rate 1000 g/ha, scale 0 to 10 (0 no effect, 10 complete control)) | S. Flatsedge plant response rating (smallflower flatsedge; [9]) | S. Flatsedge plant response rating (smallflower flatsedge; [10]) | Plant response rating, S. Flatsedge (smallflower flatsedge; [11]) | S. Flatsedge plant response rating (smallflower flatsedge; [15]) | Ducksalad plant response rating (duck salad; [1]) | Ducksalad plant response rating (duck salad; [9]) | Ducksalad plant response rating (duck salad; [10]) | Plant response rating, Ducksalad (duck salad; [11]) | Ducksalad plant response rating (duck salad; [12]) | Ducksalad plant response rating (duck salad; [13]) | Ducksalad plant response rating (duck salad; [14]) | Ducksalad plant response rating (duck salad; [15])
7: Blackgrass plant response rating (blackgrass; [8]) | Crabgrass plant response rating (crabgrass; [3]) | Morningglory plant response rating (morningglory; [1]) | Sugarbeets plant response rating (sugar beet; [8]) | Velvetleaf plant response rating (velvetleaf; [6]) | S. Flatsedge plant response rating (smallflower flatsedge; [14])
3: Blackgrass plant response rating (blackgrass; [2]) | Blackgrass plant response rating (blackgrass; [7]) | Cocklebur plant response rating (cocklebur; [8]) | Giant foxtail plant response rating (giant foxtail; [2]) | Giant foxtail plant response rating (giant foxtail; [7]) | Redroot pigweed plant response rating (pigweed; [2]) | Redroot pigweed plant response rating (pigweed; [7]) | Velvetleaf plant response rating (velvetleaf; [2]) | Plant response rating, Wheat (wheat; [5]) | Wheat plant response rating (wheat; [6])
